Data on 46 molecules can be found in US20240374579A1, “BICYCLIC PGDH INHIBITORS AND METHODS OF MAKING AND USING” (EPIRIUM BIO INC., priority 2021, published 2024).

Bounds are passed on as bounds.

The assay addresses T1, 15-PGDH/HPGD (Homo sapiens, UniProt P15428).
T1 construct: purchased R&D System 5660-DH
T1 sequence (P15428 1-266): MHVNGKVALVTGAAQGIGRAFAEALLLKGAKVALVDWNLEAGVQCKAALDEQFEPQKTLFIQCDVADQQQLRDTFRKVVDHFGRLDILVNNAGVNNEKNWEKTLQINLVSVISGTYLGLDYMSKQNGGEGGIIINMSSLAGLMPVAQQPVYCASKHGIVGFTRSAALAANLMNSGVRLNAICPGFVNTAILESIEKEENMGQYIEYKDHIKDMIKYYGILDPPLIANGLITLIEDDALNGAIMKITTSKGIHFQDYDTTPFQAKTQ
Briefly: hPGDH inhibitor screening biochemical assay. To be noted: 10 nM enzyme, 15 μM PGE2, 0.25 mM NAD, fluorescence ex/em 340/485 nm. On the procedure:
A hydroxyprostaglandin dehydrogenase inhibition screening biochemical assay can be performed to assess the synthesized inhibitors provided herein. Provided herein is an exemplary biochemical assay for hPGDH inhibitor screening.
The in vitro biochemical assay can be performed in white, 384 plates in total 20 μl reaction volume consisting of 10 nM of 15-PGDH/HPGD (R&D System #5660-DH), 15 μM Prostaglandin E2 (Sigma, Cat #P5640-10MG) and 0.25 mM β-Nicotinamide adenine dinucleotide sodium salt (Sigma, Cat #N0632-5G) made in reaction buffer (50 mM Tris-HCl, pH 7.5, 0.01% Tween 20) at 10-point dose response curve for test/tool compounds. Briefly, 5 μl (4×) of compounds solution and 5 μl (final concentration, 10 nM) of enzyme solution is added to white 384 well plates and incubated for 10 mins at 37° C. 5 μl (4×) of Prostaglandin E2 and 5 μl (4×) of β-Nicotinamide adenine dinucleotide sodium salt is added to the wells and incubated for 10 mins at room temperature. Fluorescence is recorded at ex/em=340 nm/485 nm. The percentage ([…]) inhibition of enzyme activity was determined relative to positive control (1% DMSO) and IC50 was calculated using GraphPad prism software (four parameter-variable slope equation).
For `O=C(c1cnc2c(cnn2-c2ccc(-c3nnc[nH]3)nc2)c1)N1CC2CCCC2C1` (stereo not shown) [Compound C-22], the IC50 was under 100 nM. As to `O=C(O)c1ccc(-n2ncc3cc(C(=O)N4CCC(F)(F)CC4)ccc32)cc1` [Compound C-14, 4-(5-(4,4-difluoropiperidine-1-carbonyl)-1H-indazol-1-yl) benzoic acid], the concentration for half-maximal inhibition (IC50) is under 100 nM. `C[C@H]1CCN(C(=O)c2cnc3c(cnn3-c3ccc(-c4nnc[nH]4)cc3)c2)C1` [Compound C-47] yielded a half-inhibitory concentration (IC50) of at least 1000 nM. `O=C(c1ccc2c(c1)nnn2-c1ccc(-c2ncn[nH]2)cc1)N1CCC(F)(F)CC1` [Compound C-10, (1-(4-(1H-1,2,4-triazol-5-yl)phenyl)-1H-benzo[d][1,2,3]triazol-5-yl) (4,4-difluoropiperidin-1-yl)methanone] gave an IC50 of 100 to 1000 nM. With `O=C(c1ccc2c(c1)ncn2-c1ccc(-c2ncn[nH]2)cc1)N1CCC(F)(F)CC1` [Compound C-16, (1-(4-(1H-1,2,4-triazol-5-yl)phenyl)-1H-benzo[d]imidazol-5-yl)(4,4-difluoropiperidin-1-yl)methanone], the half-inhibitory concentration (IC50) was under 100 nM. On to `C[C@H]1CCCN(C(=O)c2cnc3c(cnn3-c3ccc(-c4nnc[nH]4)nc3)c2)C1` [Compound C-20], for which the IC50 was under 100 nM.

Turning to `CCOC(=O)Nc1cncc(-n2ncc3cc(C(=O)N4CC[C@H](C(C)(F)F)C4)cnc32)c1` [Compound C-65], the half-inhibitory concentration (IC50) was 100 to 1000 nM. In turn, `CC1(C)CCN(C(=O)c2cnc3c(cnn3-c3ccc(-c4nnc[nH]4)cc3)c2)C1` [Compound C-51] showed an IC50 of 100 to 1000 nM. `C[C@H]1CCCN(C(=O)c2cnc3c(cnn3-c3cncc(-c4nc[nH]n4)c3)c2)C1` [Compound C-34] registered an IC50 of under 100 nM.

Regarding `O=C(c1ccc2c(cnn2-c2ccc(-c3ncn[nH]3)nc2)c1)N1CCC(F)(F)CC1` [Compound C-12], the IC50 is under 100 nM.

`O=C(c1cnc2c(cnn2-c2ccc(-c3nnc[nH]3)c(F)c2)c1)N1CCSCC1` [Compound C-64] registered an IC50 of under 100 nM. Take `O=C(O)c1ccc(-n2cnc3cc(C(=O)N4CCC(F)(F)CC4)ccc32)cc1` [Compound C-17, 4-(5-(4,4-difluoropiperidine-1-carbonyl)-1H-benzo[d]imidazol-1-yl) benzoic acid]: the 50% inhibitory concentration (IC50) is under 100 nM. `O=C(O)c1ccc(-n2cc3cc(C(=O)N4CCC(F)(F)CC4)ccc3n2)cc1` [Compound D-4, 4-(5-(4,4-difluoropiperidine-1-carbonyl)-2H-indazol-2-yl) benzoic acid]: the IC50 is 100 to 1000 nM. For the molecule `Cc1nc2cc(C(=O)N3CCC(F)(F)CC3)cnc2n1-c1ccc(C(=O)O)cc1` [Compound C-3, 4-(6-(4,4-difluoropiperidine-1-carbonyl)-2-methyl-3H-imidazo[4,5-b]pyridin-3-yl)benzoic acid], the 50% inhibitory concentration (IC50) is under 100 nM. With `CCOC(=O)Nc1cncc(-n2ncc3cc(C(=O)N4CCC[C@H](C(F)(F)F)C4)cnc32)c1` [Compound C-54] the figure was 100 to 1000 nM; with `O=C(c1cnc2c(cnn2-c2cc(Cl)cc(-c3nnc[nH]3)c2)c1)N1CC[S+]([O-])CC1` [Compound C-67], 100 to 1000 nM; with `CCO[C@@H]1CCN(C(=O)c2cnc3c(cnn3-c3ccc(-c4nnc[nH]4)cc3)c2)C1` [Compound C-44], at least 1000 nM. The figure for `O=C(c1cnc2c(cnn2-c2cccc(-c3nnc[nH]3)c2)c1)N1CCC(F)(F)CC1` [Compound C-41, (1-(3-(4H-1,2,4-triazol-3-yl)phenyl)-1H-pyrazolo[3,4-b]pyridin-5-yl)(4,4-difluoropiperidin-1-yl)methanone] is under 100 nM. For the molecule `O=C(c1cnc2c(cnn2-c2ccc(-c3nnc[nH]3)c(F)c2)c1)N1CC[S+]([O-])CC1` [Compound C-69], the IC50 fell in the range of 100 to 1000 nM.

As to `O=C(c1cnc2c(cnn2-c2ccc(-c3nnc[nH]3)cc2)c1)N1CC2CC2C1` (stereo not shown) [Compound C-42], the IC50 lay within 100 to 1000 nM.

`COc1cc(-c2nnc[nH]2)cc(-n2ncc3cc(C(=O)N4CCC(F)(F)CC4)cnc32)c1` [Compound C-71]: the IC50 is under 100 nM. With `C[C@@H]1CN(C(=O)c2cnc3c(cnn3-c3cc(Cl)cc(-c4nnc[nH]4)c3)c2)CCO1` [Compound C-60], the IC50 is under 100 nM. Regarding `O=C(c1cnc2c(cnn2-c2ccc(-c3nnc[nH]3)cc2)c1)N1CCCC(F)(F)C1` [Compound C-31], the IC50 is under 100 nM. With `CCOC(=O)Nc1cncc(-n2ncc3cc([S+]([O-])CC4CC4)cnc32)c1` (stereo not shown) [Compound C-90] the figure was 100 to 1000 nM; with `O=C(c1cnc2c(cnn2-c2ccc(-c3nnc[nH]3)cc2)c1)N1CCCC(C(F)(F)F)C1` (stereo not shown) [Compound C-58], 100 to 1000 nM; with `O=C(c1ccc2c(cnn2-c2ccc(-c3ncn[nH]3)cc2)c1)N1CCC(F)(F)CC1` [Compound C-13], under 100 nM. The molecule `Cc1cc(-n2ncc3cc(C(=O)N4CCC(F)(F)CC4)cnc32)ccc1-c1nnc[nH]1` [Compound C-72] returned an IC50 of under 100 nM. `O=C(O)c1ccc(-n2ncc3cc(C(=O)N4CCC(F)(F)CC4)cnc32)cc1` [Compound C-2, 4-(5-(4,4-difluoropiperidine-1-carbonyl)-1H-pyrazolo[3,4-b]pyridin-1-yl) benzoic acid]: the IC50 was under 100 nM. Take `O=C(O)c1ccc(-c2cnc3cc(C(=O)N4CCC(F)(F)CC4)ccn23)cn1` [Compound D-2, 5-(7-(4,4-difluoropiperidine-1-carbonyl)imidazo[1,2-a]pyridin-3-yl)picolinic acid]: the IC50 fell in the range of 100 to 1000 nM.

Molecule `CN(C)c1nc2ccc(-n3ncc4cc(C(=O)N5CCC(F)(F)CC5)cnc43)cn2n1` [Compound C-24] had a half-inhibitory concentration (IC50) of at least 1000 nM. `O=C(c1cnc2c(cnn2-c2cc(Cl)cc(-c3nnc[nH]3)c2)c1)N1CCC(F)(F)CC1` [Compound C-62]: the IC50 was under 100 nM.

For the molecule `[O-][S+](CC1CC1)c1cnc2c(cnn2-c2ccc(-c3nnc[nH]3)cc2)c1` (stereo not shown) [Compound C-95], the half-inhibitory concentration (IC50) was 100 to 1000 nM.

In turn, `O=C(c1cnc2c(cnn2-c2ccc(-c3nnc[nH]3)cc2F)c1)N1CCC(F)(F)CC1` [Compound C-73] had an IC50 of under 100 nM. For the molecule `O=C(c1cnc2c(c1)nnn2-c1ccc(-c2ncn[nH]2)nc1)N1CCC(F)(F)CC1` [Compound C-5, (3-(6-(1H-1,2,4-triazol-5-yl)pyridin-3-yl)-3H-[1,2,3]triazolo[4,5-b]pyridin-6-yl) (4,4-difluoropiperidin-1-yl)methanone], the IC50 is under 100 nM. Regarding `O=C(c1cnc2c(cnn2-c2ccc(-c3ncn[nH]3)nc2)c1)N1CCC(F)(F)CC1` [Compound C-4], the IC50 is under 100 nM. For `O=C(c1cnc2c(cnn2-c2ccc(-c3nnc[nH]3)c(F)c2)c1)N1CCC(F)(F)CC1` [Compound C-63], the half-maximal inhibitory concentration (IC50) is under 100 nM. `CCCC[S+]([O-])c1cnc2c(cnn2-c2ccc(-c3nnc[nH]3)cc2)c1` (stereo not shown) [Compound C-93] had an IC50 of 100 to 1000 nM. The molecule `O=C(Nc1cccc(-n2ncc3cc(C(=O)N4CCC(F)(F)CC4)cnc32)c1)C1CC1` [Compound C-49] had an IC50 of 100 to 1000 nM. The molecule `O=C(c1cnc2c(cnn2-c2cc(Cl)cc(-c3nnc[nH]3)c2)c1)N1CCSCC1` [Compound C-66, (1-(3-chloro-5-(4H-1,2,4-triazol-3-yl)phenyl)-1H-pyrazolo[3,4-b]pyridin-5-yl)(thiomorpholino)methanone] registered an IC50 of under 100 nM. Take `C[C@H]1CCCN(C(=O)c2cnc3c(cnn3-c3cncc(C(N)=O)c3)c2)C1` [Compound C-35]: the concentration for half-maximal inhibition (IC50) was under 100 nM. As for `COc1cc(-n2ncc3cc(C(=O)N4CCC(F)(F)CC4)cnc32)ccc1-c1nnc[nH]1` [Compound C-74], the half-inhibitory concentration (IC50) was under 100 nM. `CCCC[S+]([O-])c1cnc2c(cnn2-c2cncc(NC(=O)OCC)c2)c1` (stereo not shown) [Compound C-94] showed a 50% inhibitory concentration (IC50) of 100 to 1000 nM. With `C[C@@H]1CCN(C(=O)c2cnc3c(cnn3-c3ccc(-c4nnc[nH]4)cc3)c2)C1` [Compound C-46], the IC50 was in the range of 100 to 1000 nM. Regarding `O=C(O)c1ccc(-c2cnc3cc(C(=O)N4CCC(F)(F)CC4)ccn23)cc1` [Compound D-1, 4-(7-(4,4-difluoropiperidine-1-carbonyl)imidazo[1,2-a]pyridin-3-yl)benzoic acid], the IC50 was under 100 nM. For the molecule `O=C(c1cnc2c(c1)nnn2-c1ccc(-c2ncn[nH]2)cc1)N1CCC(F)(F)CC1` [Compound C-7, (3-(4-(1H-1,2,4-triazol-5-yl)phenyl)-3H-[1,2,3]triazolo[4,5-b]pyridin-6-yl) (4,4-difluoropiperidin-1-yl)methanone], the IC50 was under 100 nM. In turn, `O=C(c1ccn2c(-c3ccc(-c4ncn[nH]4)nc3)cnc2c1)N1CCC(F)(F)CC1` [Compound D-3, (3-(6-(1H-1,2,4-triazol-5-yl)pyridin-3-yl)imidazo[1,2-a]pyridin-7-yl)(4,4-difluoropiperidin-1-yl)methanone] displayed a 50% inhibitory concentration (IC50) of 100 to 1000 nM.

By IC50 is commonly meant the concentration that gives 50% inhibition. Low readings indicate higher potency, high ones lower potency.
